Key:
CHO K1 cells = experiment: Cell-based fucosylation assay, fluorescein-AAL lectin staining of CHO K1 cells; set-up: species or system Chinese hamster; conditions: Cricetulus griseus, 120 h, five days with inhibitor, 3.2 nM-100 μM, AAL lectin fluorescence normalized to DMSO vehicle
Procedure: CHO K1 cells were grown in a T175 flask, in F12 medium supplemented with 10% […], at 37° C., 5% CO2. 350 cells were seeded in every well of a 384-well plate (Corning 4680, 45 μL final) and incubated at 37° C. overnight. Inhibitors were stored as 20 mM stock solution in DMSO. Inhibitors were diluted to the desired concentration in CHO cells culture medium and were dispensed into the wells of the plate (50 μL final well volume). An equivalent amount of DMSO (vehicle) was dispensed into control wells. Cells were incubated in the presence of inhibitors for five days. Following treatment, the culture medium was removed and cells were washed four times with 60 μL of PBS-T using a combination washer/dispenser (EL406, Biotek). 50 μL of 4% PFA in PBS-T was then dispensed into the plate and cells were incubated for 15 min at room temperature before being washed four times with 60 μL of PBS-T. Cells were subsequently incubated for 45 minutes at room temperature with 5% Bovine Serum Albumin (BSA) in PBS-T to prevent non-specific lectin binding. The BSA solution was then replaced by 50 μL of a solution of 5 μg/mL of Fluorescein-conjugated Aleuria Aurentia Lectin (AAL) (Vector Laboratories) and cells were kept at room temperature in the dark for 1 h. Negative controls were co-incubated with AAL and 100 mM fucose as a lectin antagonist. Cells were subsequently washed four times with 60 μL PBS-T. Then, 50 μL of 1 μg/mL Hoechst solution in PBS was dispensed into each well and cells were directly imaged using an ImageXpress MicroXLS high content microscope (Molecular Devices). Four sites per wells were imaged using DAPI and FITC channels (50 ms and 300 ms exposure respectively). Images were processed using MetaXpress software. Briefly, for each site, the integrated average fluorescence was quantified and normalized for the corresponding number of cells determined with nuclear staining. Results from each site were combined to provide a single value for each well. At least four independent wells were imaged for each condition providing four biological replicates. IC50 curves were plotted using GraphPad Prism. Results were normalized on the average value for vehicle wells (DMSO treated).
We assessed the potency of carbafucose and selected analogs through dose-response experiments over a 3.2 nM-100 μM range of concentrations in the cell-based assay. The cell-based fucosylation antagonist 2-deoxy-2-fluoro-L-fucose (2FFuc) was used as a control (FIGS. 1A-D).

Expi-CHO cells = experiment: Glycan analysis of HER2 antibody from compound-treated Expi-CHO cells (PNGaseF release, CE-LIF); assay type: cell-based, Chinese hamster; conditions: 0.1 mM compound added a day after transfection with HER2 antibody, harvested after 8 days, released glycans by CE-LIF; for Glycan A2 (alt name G0) (%): non-fucosylated glycan
Procedure: Expi-CHO cells were treated with compounds 16, 7, 9, 13, 6, 8, 14 and 15 at 0.1 mM (final conc.) a day after transfection with HER2 antibody. The transfected cells were harvested after 8 days and purified HER2 antibodies were deglycosylated using PNGaseF and the released glycans were purified and analyzed by capillary electrophoresis-laser-induced fluorescence (CE-LIF).

SMILES | IC50 (CHO K1 cells) [µM] | Glycan A2BG2 (alt name G2B) (%) (Expi-CHO cells) | Glycan FA2(3)G1 (alt name G1′F) (%) (Expi-CHO cells) | Glycan FA2(6)G1 (alt name G1F) (%) (Expi-CHO cells) | Glycan FA2(6)G1S1 (alt name G1FS1) (%) (Expi-CHO cells) | Glycan FA2 (alt name G0F) (%) (Expi-CHO cells) | Glycan FA2G2S1 (alt name G2FS1) (%) (Expi-CHO cells) | Glycan FA2G2S2 (alt name G2FS2) (%) (Expi-CHO cells) | Glycan A2 (alt name G0) (%) (Expi-CHO cells)
C[C@@H]1C[C@H](O)[C@@H](O)[C@H](O)[C@@H]1O [carbafucose] | 16.1 ± 7.7 |  |  |  |  |  |  |  | 
CC1C[C@H](O)[C@@H](O)[C@H](O)[C@@H]1O (stereo partly shown) [Compound 15] |  | 0.0 | 0.0 | 0.0 | 17.2 | 8.8 | 0.0 | 3.3 | 70.6
C[C@@H]1OC(O)[C@@H](F)[C@H](O)[C@@H]1O (stereo partly drawn) [2FFuc, 2-deoxy-2-fluoro-L-fucose, reference compound] | 137 ± 79 |  |  |  |  |  |  |  | 
CC1=C[C@H](O)[C@@H](F)[C@H](O)[C@@H]1O [Compound 6] |  | 0.8 | 0.6 | 4.1 | 0.8 | 77.7 | 15.9 | 0.0 | 0.0
C=C[C@@H]1C[C@H](O)[C@@H](O)[C@H](O)[C@@H]1O [1-42] | 137 ± 79 |  |  |  |  |  |  |  | 
CC1C[C@H](O)[C@@H](F)[C@H](O)[C@@H]1O (stereo partly shown) [Compound 8] |  | 0.0 | 0.0 | 3.9 | 0.0 | 79.3 | 16.8 | 0.0 | 0.0
CC(=O)O[C@H]1[C@H](F)[C@@H](OC(C)=O)CC(C)[C@H]1OC(C)=O (stereo partly shown) [Compound 9] |  | 0.8 | 0.0 | 3.9 | 0.0 | 78.9 | 16.4 | 0.0 | 0.0
CC(=O)O[C@H]1[C@H](F)[C@@H](OC(C)=O)C=C(C)[C@H]1OC(C)=O [Compound 7] |  | 0.0 | 0.0 | 3.9 | 0.0 | 79.5 | 16.6 | 0.0 | 0.0
C[C@@H]1C[C@H](OP(=O)(O)O)[C@@H](O)[C@H](O)[C@@H]1O [2-3] | 39.5 ± 30.3 |  |  |  |  |  |  |  | 
CC1=C[C@H](O)[C@@H](O)[C@H](O)[C@@H]1O [Compound 13] |  | 0.8 | 0.0 | 3.9 | 0.9 | 77.3 | 17.0 | 0.0 | 0.0

Reference: US20230331649A1, “INHIBITORS OF PROTEIN FUCOSYLATION AND USES THEREOF” (SIMON FRASER UNIVERSITY, priority 2020, published 2023)
